In general, inhibition refers to the share of the control response that was lost under treatment.

The target of the first data set is T1, recombinant HIV-1 protease (Human immunodeficiency virus type 1 group M subtype B, UniProt P04585).
T1 construct: 10.5 nM HIV-1 protease
Nature of the data set: Measurement of HIV protease inhibitory activity. The format is biochemical. To be noted: 50 nM compound; 10.5 nM HIV-1 protease, pH 6.5, 37° C., 60 minutes; read-out: HIV protease inhibition rate (%) at 50 nM. On the procedure: Measurement of HIV protease inhibitory activity
The protease inhibitory activity was measured according to the method reported by T. Mimoto et al., J. Med. Chem., 42, 1789-1802 (1999) by using a recombinant HIV-1 protease (see Biochemistry, 250, 9, 264 (1990)) and a synthesized peptide substrate (H-Ser-Gln-Asn-Tyr-Pro-Ile-Val-OH). Specifically, reaction solutions (15 μl each) containing any one of the compounds synthesized in the above Examples 1-15 and Reference Examples 1-4, an inhibitor in which a known anti-AIDS agent (nelfinavir) is dissolved in DMSO in different concentrations, 10.5 nM HIV-1 protease, 20 mM synthesized peptide substrate, and 100 mM MES buffer solution (pH 6.5) were incubated at 37° C. for 60 minutes. Peptide fragments produced by cleaving the Tyr-Pro bonds in the synthesized peptide substrate was quantitatively measured by reverse phase HPLC.
For the compound `CCOc1ccc(C[C@H](NC(=O)c2cccc(N)c2Cl)[C@H](O)C(=O)N2CSC(C)(C)[C@H]2C(=O)NCc2ccccc2C)cc1` [Ex. 12, (R)-N-(2-methylbenzyl)-3-[(2S,3S)-2-hydroxy-3-(3-amino-2-chlorobenzoyl)amino-4-(4-ethoxyphenyl)butanoyl]-5,5-dimethyl-1,3-thiazolidine-4-carboxamide], the inhibition at 0.05 µM was 89%.

With `COc1ccc(C[C@H](NC(=O)c2ccc(F)c(O)c2C)[C@H](O)C(=O)N2CSC(C)(C)[C@H]2C(=O)NCc2ccccc2C)cc1` [Ex. 3, (R)-N-(2-methylbenzyl)-3-[(2S,3S)-2-hydroxy-3-(4-fluoro-3-hydroxy-2-methyl-benzoyl)amino-4-(4-methoxyphenyl)butanoyl]5,5-dimethyl-1,3-thiazolidine-4-carboxamide], the inhibition at 0.05 µM was 93%.

For the compound `Cc1cccc(C)c1CNC(=O)[C@H]1N(C(=O)[C@@H](O)[C@H](Cc2ccc3c(c2)OCO3)NC(=O)c2cccc(N)c2Cl)CSC1(C)C` [Ex. 15, (R)-N-(2,6-dimethylbenzyl)-3-[(2S,3S)-2-hydroxy-3-(3-amino-2-chlorobenzoyl)amino-4-(3,4-methylenedioxyphenyl)butanoyl]-5,5-dimethyl-1,3-thiazolidine-4-carboxamide], the inhibition at 0.05 µM was determined as 96%.

With `COc1ccc(C[C@H](NC(=O)c2cccc(N)c2Cl)[C@H](O)C(=O)N2CSC(C)(C)[C@H]2C(=O)NCc2ccccc2C)cc1` [Ex. 4, (R)-N-(2-methylbenzyl)-3-[(2S,3S)-2-hydroxy-3-(3-amino-2-chlorobenzoyl)amino-4-(4-methoxyphenyl)butanoyl]-5,5-dimethyl-1,3-thiazolidine-4-carboxamide], the inhibition at 0.05 µM turned out to be 91%.

In the case of `Cc1ccccc1CNC(=O)[C@H]1N(C(=O)[C@@H](O)[C@H](Cc2ccc(Cl)cc2)NC(=O)c2cccc(O)c2C)CSC1(C)C` [Ex. 11, (R)-N-(2-methylbenzyl)-3-[(2S,3S)-2-hydroxy-3-(3-hydroxy-2-methylbenzoyl)amino-4-(4-chlorophenyl)butanoyl]-5,5-dimethyl-1,3-thiazolidine-4-carboxamide], the inhibition at 0.05 µM was 97%.

For the compound `Cc1ccccc1CNC(=O)[C@H]1N(C(=O)[C@@H](O)[C@H](Cc2ccc(OC(C)C)cc2)NC(=O)c2cccc(O)c2C)CSC1(C)C` [Ex. 8, (R)-N-(2-methylbenzyl)-3-[(2S,3S)-2-hydroxy-3-(3-hydroxy-2-methylbenzoyl)amino-4-(4-isopropoxyphenyl)butanoyl]-5,5-dimethyl-1,3-thiazolidine-4-carboxamide], the inhibition at 0.05 µM turned out to be 96%.

Turning to `COc1ccc(C[C@H](NC(=O)c2cccc(O)c2C)[C@H](O)C(=O)N2CSC(C)(C)[C@H]2C(=O)NCc2cc(F)ccc2C)cc1` [Ex. 2, (R)-N-(5-fluoro-2-methylbenzyl)-3-[(2S,3S)-2-hydroxy-3-(3-hydroxy-2-methyl-benzoyl)amino-4-(4-methoxyphenyl)butanoyl]-5,5-dimethyl-1,3-thiazolidine-4-carboxamide], the inhibition at 0.05 µM is 97%.

As to `CCOc1ccc(C[C@H](NC(=O)c2cccc(O)c2C)[C@H](O)C(=O)N2CSC(C)(C)[C@H]2C(=O)NCc2ccccc2C)cc1` [Ex. 5, (R)-N-(2-methylbenzyl)-3-[(2S,3S)-2-hydroxy-3-(3-hydroxy-2-methylbenzoyl)amino-4-(4-ethoxyphenyl)butanoyl]-5,5-dimethyl-1,3-thiazolidine-4-carboxamide], the inhibition at 0.05 µM amounted to 95%.

As to `Cc1c(O)cccc1C(=O)N[C@@H](CSc1ccccc1)[C@H](O)CN1C[C@H]2CCCC[C@H]2C[C@H]1C(=O)NC(C)(C)C` [Re. 5, nelfinavir, reference compound], the inhibition at 0.05 µM came to 93%.

As to `Cc1ccccc1CNC(=O)[C@H]1N(C(=O)[C@@H](O)[C@H](Cc2ccc(C(C)C)cc2)NC(=O)c2cccc(O)c2C)CSC1(C)C` [Ex. 10, (R)-N-(2-methylbenzyl)-3-[(2S,3S)-2-hydroxy-3-(3-hydroxy-2-methylbenzoyl)amino-4-(4-isopropylphenyl)butanoyl]-5,5-dimethyl-1,3-thiazolidine-4-carboxamide], the inhibition at 0.05 µM was determined as 96%.

With `CCCOc1ccc(C[C@H](NC(=O)c2cccc(O)c2C)[C@H](O)C(=O)N2CSC(C)(C)[C@H]2C(=O)NCc2ccccc2C)cc1` [Ex. 7, (R)-N-(2-methylbenzyl)-3-[(2S,3S)-2-hydroxy-3-(3-hydroxy-2-methylbenzoyl)amino-4-(4-n-propoxyphenyl)butanoyl]-5,5-dimethyl-1,3-thiazolidine-4-carboxamide], the inhibition at 0.05 µM was 97%.

On to `COc1ccc(C[C@H](NC(=O)c2cccc(N)c2Cl)[C@H](O)C(=O)N2CSC(C)(C)[C@H]2C(=O)NCc2c(C)cccc2C)cc1` [Ex. 14, (R)-N-(2,6-dimethylbenzyl)-3-[(2S,3S)-2-hydroxy-3-(3-amino-2-chlorobenzoyl)amino-4-(4-methoxyphenyl)butanoyl]-5,5-dimethyl-1,3-thiazolidine-4-carboxamide], for which the inhibition at 0.05 µM was determined as 92%.

Consider `Cc1ccccc1CNC(=O)[C@H]1N(C(=O)[C@@H](O)[C@H](Cc2ccc3c(c2)OCO3)NC(=O)c2cccc(O)c2C)CSC1(C)C` [Ex. 6, (R)-N-(2-methylbenzyl)-3-[(2S,3S)-2-hydroxy-3-(3-hydroxy-2-methylbenzoyl)amino-4-(3,4-methylenedioxyphenyl)butanoyl]-5,5-dimethyl-1,3-thiazolidine-4-carboxamide], for which the inhibition at 0.05 µM is 97%.

As to `COc1ccc(C[C@H](NC(=O)c2cccc(O)c2C)[C@H](O)C(=O)N2CSC(C)(C)[C@H]2C(=O)NCc2ccccc2C)cc1` [Ex. 1, (R)-N-(2-methylbenzyl)-3-[(2S,3S)-2-hydroxy-3-(3-hydroxy-2-methylbenzoyl)amino-4-(4-methoxyphenyl)butanoyl]-5,5-dimethyl-1,3-thiazolidine-4-carboxamide], the inhibition at 0.05 µM is 95%.

Consider `Cc1ccccc1CNC(=O)[C@H]1N(C(=O)[C@@H](O)[C@H](Cc2ccc3c(c2)OCO3)NC(=O)c2cccc(N)c2Cl)CSC1(C)C` [Ex. 13, (R)-N-(2-methylbenzyl)-3-[(2S,3S)-2-hydroxy-3-(3-amino-2-chlorobenzoyl)amino-4-(3,4-methylenedioxyphenyl)butanoyl]-5,5-dimethyl-1,3-thiazolidine-4-carboxamide], for which the inhibition at 0.05 µM is 95%.

A further data set relates to human plasma. Put plainly: Protein binding to human plasma (ultrafiltration, unbound ratio). Particulars: concentration 1 μM; from regression line of FIG. 1; 18 hours at 37° C. The format is in vitro ADME. On the procedure: Measurement of protein binding rate […] Freezed human plasma (HFFPP100) was used after thawing. Powder of human alpha 1-acid glycoprotein (supplied by SIGMA Co., hereinafter abbreviated to AAG) was dissolved in a phosphate buffer solution (PBS, pH 7.0) to a concentration of 1 mg/ml. […] Quantitative determination of unbound drug concentration […] All amount of the solution was transferred to Micropartition Devices (Centrifree®, Millipore Co.) and filtered by centrifugation at 1500 ×g for 20 minutes (using TOMY CX-210 high-speed cooling centrifugal machine). 200 μl of the filtrate was directly subjected to HPLC (Type: HITACHI D-7000, column: COSMOSIL (4.6* 250 mm, manufactured by Nacalai Tesque Co., Ltd.). The HPLC analysis was carried out by using a 59:41 (v/v) water-acetonitrile mixture containing 0.1% trifluoroacetic acid (TFA) as a mobile phase and measuring absorbance at 210 nm. The quantitative determination of unbound drug concentration was carried out based on the absolute calibration curve method using a calibration line obtained from the analysis of a standard sample which contains the drug at a known concentration. Analysis of protein binding properties A commonly accepted method (see Y. Odagiri et al., Protein Binding Experimental Method (1991), Hirokawa Publishing Co., Ltd.) was employed for the analysis of protein binding properties. […]
Regarding `COc1ccc(C[C@H](NC(=O)c2cccc(O)c2C)[C@H](O)C(=O)N2CSC(C)(C)[C@H]2C(=O)NCc2ccccc2C)cc1` [Ex. 1, (R)-N-(2-methylbenzyl)-3-[(2S,3S)-2-hydroxy-3-(3-hydroxy-2-methylbenzoyl)amino-4-(4-methoxyphenyl)butanoyl]-5,5-dimethyl-1,3-thiazolidine-4-carboxamide], the “ratio of unbound drug (human plasma)” value is 0.029.

System in another data set: not listed separately
Put plainly: Plasma concentration after intraduodenal administration to rats. The format is in vivo. Particulars: Sprague-Dawley, other: into the duodenum, rat, 10 mg/kg into the duodenum, 30 minutes after the administration. On the procedure: A pharmacological experiment of the compound of the present invention was carried out using Sprague-Dawley rats (300-400 g). 10 mg/kg of a 50% polyethylene glycol (PEG) solution (1 ml/kg) was administered into the duodenum under anesthesia and blood was collected over time. After the addition of a solvent, the collected blood plasma sample was shaken and centrifuged. The organic layer was concentrated and dissolved in 50% methanol. The sample thus obtained was analyzed by HPLC for the determination of concentration of the compound in plasma. The HPLC analysis was carried out using Capecellpak C18 (4.6×150 mm, Shiseido LTD) as a column and a mixed solvent of 0.1% TFA aqueous solution and acetonitrile as an eluent (see T. Mimoto et al. J. Med. Chem., 42, 1789-1802, 1999).
The compound of the present invention was confirmed to have pharmacological characteristics expected as an in vivo effect of the compound. For instance, when the compound of Example 1 of the present invention is administered to a rat at a dose of 10 mg/kg into the duodenum, the compound is detected in plasma of the rat at a concentration of 0.42 μg/ml 30 minutes after the administration.
On to `COc1ccc(C[C@H](NC(=O)c2cccc(O)c2C)[C@H](O)C(=O)N2CSC(C)(C)[C@H]2C(=O)NCc2ccccc2C)cc1` [Ex. 1, (R)-N-(2-methylbenzyl)-3-[(2S,3S)-2-hydroxy-3-(3-hydroxy-2-methylbenzoyl)amino-4-(4-methoxyphenyl)butanoyl]-5,5-dimethyl-1,3-thiazolidine-4-carboxamide], for which the concentration at 30 min came out at 420 ng/mL.

The values above are taken from US6673772B2, “Dipeptide compounds and their use as antiviral agents” (Sumitomo Pharmaceuticals Company Limited, priority 2000, dated 2004).
